Data on 22 compounds can be found in patent US20130203734A1, “ANTI-INFLAMMATORY AGENTS” (priority 2010, published 2013).

For orientation: melting point means the temperature of the solid-liquid transition.

In data set [1] the test system is endotoxin-stimulated TNF-alpha levels. Kind of data set: Murine sub-lethal endotoxemia model, serum TNF-α by ELISA. It is filed as in vivo, mice. The protocol: FIG. 2 is a graph showing the results of a murine sub-lethal endotoxemia test.
The anti-inflammatory efficacy of an exemplar compound according to the present invention was tested using the murine sub-lethal endotoxemia model.
Briefly, the method is as follows. Female CD1 mice (28-30g, ˜7 weeks of age) were dosed with their respective treatment in sterile filtered 1% CMC by oral gavage in a dose volume of 10 ml/kg one hour prior to an endotoxin (LPS) challenge. The endotoxin challenge was injected by the intraperitoneal route containing 675,000 Endotoxin Units of LPS (E. coli strain 0111:B4 (Code L4130)) in endotoxin free PBS. Mice were left for two hours and then exsanguinated under terminal anaesthesia and blood was taken. Serum was prepared from this terminal bleed and aliquoted and stored at −20° C. Serum TNF-α levels were measured by ELISA per manufacturers instructions (R and D Systems).
Eight animals were treated in each group, and the data for the animal with the highest and lowest TNF-α level in each group were eliminated, and the mean and standard error reported for the remaining six animals.

Data set [2] deals with MCP-1 induced migration of THP-1 cells. In words: Inhibition of MCP-1 induced leukocyte migration (transwell, THP-1 cells). It is filed as cell-based. Particulars: Homo sapiens, MCP-1 25 ng/ml, 2 hours 37° C., read-out: ED50 (concentration required to reduce MCP-1-induced migration by 50%). As to the method: A. Inhibition of MCP-1 Induced Leukocyte Migration
In principle, this assay consists of two chambers separated by a porous membrane. The chemoattractant is placed in the lower compartment and the cells are placed in the upper compartment. After incubation for a period at 37° C. the cells move towards the chemoattractant, and the number of cells in the lower compartment is proportional to the chemoattractant activity (relative to a series of controls).
This assay can be used with a range of different leukocyte populations. For example, freshly prepared human peripheral blood leukocytes may used. Alternatively, leukocyte subsets may be prepared, including polymorphonuclear cells or lymphocytes or monocytes using methods well known to those skilled in the art such as density gradient centrifugation or magnetic bead separations. Alternatively, immortal cell lines which have been extensively validated as models of human peripheral blood leukocytes may be used, including, but not limited to THP-1 cells as a model of monocytes or Jurkat cells as model of naive T cells.
The transwell migration systems are manufactured by Neuroprobe, Gaithersburg, Md., USA.
The plates used are ChemoTx plates (Neuroprobe 101-8) and 30 μl clear plates (Neuroprobe MP30).
Geys' Balanced Salt Solution is purchased from Sigma (Sigma G-9779).
Fatty acid-free BSA is purchased from Sigma (Sigma A-8806). […]

For data set [3], the system named is chemokine-induced migration. Particulars: cited from earlier work.
In data set [4] the test system is MCP-1 induced migration of THP-1 cells. Particulars: cited from earlier work.
For data set [5] the following is noted: 37° C.; cited from earlier work.
The conditions of data set [6]: cited from earlier work.

For `O=C1NCCC[C@@H]1NS(=O)(=O)c1cc(F)cc(F)c1` [Example 11, (S)-3,5-difluoro-N-(2-oxopiperidin-3-yl)benzenesulfonamide], the melting point was in the range of 170 to 174 °C. In the case of `O=C1NCCCC[C@@H]1NC(=O)C12CC3CC(CC(C3)C1)C2` [(S)-3-(adamantane-1-carbonyl)aminocaprolactam], in data set [1] (1 mg/kg p.o.), the “anti-inflammatory effect in vivo compared with the compound of Example 4” value was “similar”. In turn, `O=C1NCCC[C@@H]1NS(=O)(=O)c1ccccc1F` [Example 3, (S)-2-Fluoro-N-(2-oxopiperidin-3-yl)benzenesulfonamide] came in with a melting point of 180 to 183 °C.

`Cc1ccc(S(=O)(=O)NC2CCCNC2=O)cc1` (stereo not drawn) [Reference Example 1, 3-(4′-Methylbenzenesulfonylamino)tetrahydropyridin-2-one]: in data set [2], the EC50 was ≤ 100 nM. For `O=C1CCC(N2C(=O)c3ccccc3C2=O)C(=O)N1` (stereo not drawn) [thalidomide], in data set [1] (thalidomide 10 mg/kg p.o., positive control, maximally effective dose), the “anti-inflammatory effect on TNF-α levels in vivo compared with the compound of Example 4” value is “quantitatively similar”. The compound `O=C1NCCC[C@@H]1NS(=O)(=O)c1ccc(F)c(F)c1` [Example 10, (S)-3,4-difluoro-N-(2-oxopiperidin-3-yl)benzenesulfonamide] gave a melting point of 153 to 155 °C.

For `Cc1ccc(S(=O)(=O)NC2CCCCNC2=O)cc1` (stereo not drawn) [Reference Example 2, 3-(4′-Methylbenzenesulfonylamino)azepan-2-one], the EC50 in data set [2] was ≤ 100 nM. In turn, `O=C1NCCC[C@@H]1NS(=O)(=O)c1ccccc1C(F)(F)F` [Example 6, (S)—N-(2-oxopiperidin-3-yl)-2-(trifluoromethyl)benzenesulfonamide] showed a melting point of 161 to 163 °C.

Regarding `CCCCCCCCCC=CC(=O)NC1CCCCNC1=O` (stereo not drawn) [dodec-2′,3′-enoyl-3-aminocaprolactam], the “potency as BSCI relative to compounds with corresponding saturated alkyl tail groups” value in data set [3] is reported as “markedly lower potency”. `O=C1NCCC[C@@H]1NS(=O)(=O)c1ccc(F)cc1` [Example 1, (S)-4-Fluoro-N-(2-oxopiperidin-3-yl)benzenesulfonamide] showed a melting point of 153 to 156 °C. `O=C1NCCC[C@@H]1NS(=O)(=O)c1c(F)cccc1F` [Example 9, (S)-2,6-difluoro-N-(2-oxopiperidin-3-yl)benzenesulfonamide] had a melting point of 152 to 153 °C. The same measure, in the same setting: the result for `CC(C)(C)c1ccc(S(=O)(=O)N[C@H]2CCCNC2=O)cc1` [Example 16, (S)-3-(4′-tert-Butylbenzenesulfonylamino)-tetrahydropyridin-2-one] reads 155 to 156 °C. For the compound `O=C1NCCC[C@@H]1NS(=O)(=O)c1ccc(C(F)(F)F)cc1` [Example 4, (S)—N-(2-Oxopiperidin-3-yl)-4-(trifluoromethyl)-benzenesulfonamide], the “inhibition of endotoxin-stimulated TNF-alpha levels” value in data set [1] (female CD1 mice, single dose 10 mg/kg p.o. one hour prior to LPS, serum 2 hours after LPS) is on record as 60-70%.

`O=C1NCCC[C@@H]1NS(=O)(=O)c1cc(F)ccc1F` [Example 8, (S)-2,5-difluoro-N-(2-oxopiperidin-3-yl)benzenesulfonamide]: the melting point was 183 to 185 °C. In the case of `CCCCCCCCCCC(C)(C)C(=O)NC1CCCCNC1=O` (stereo not drawn) [2′2′-dimethyldodecenanoyl-3-aminocaprolactam], the “potency as a BSCI relative to dodecanoyl-3-aminocaprolactam” value in data set [4] (MCP-1 induced THP-1 cell migration assay) was 10 fold. Turning to `O=C1NCCC[C@@H]1NS(=O)(=O)c1cccc(F)c1` [Example 2, (S)-3-Fluoro-N-(2-oxopiperidin-3-yl)benzenesulfonamide], the melting point was in the range of 159 to 160 °C. Same read-out and setting: the result for `CCCCCCCCc1ccc(S(=O)(=O)N[C@H]2CCCNC2=O)cc1` [Example 19, (S)-3-(4′-Octylbenzenesulfonylamino)-tetrahydropyridin-2-one] reads 98 to 99 °C.

“(S)-3-(undec-10-enoyl)-tetrahydropyridin-2-one”: in data set [5], the “stability in human serum (completely stable for)” value is “at least 7 days”. Besides, the “potency compared with the parental molecule (S)-3-(undec-10-enoyl)-aminoglutarimide” value in data set [3] is recorded as “considerably reduced potency”. In turn, `O=C1NCCC[C@@H]1NS(=O)(=O)c1ccc(F)cc1F` [Example 7, (S)-2,4-difluoro-N-(2-oxopiperidin-3-yl)benzenesulfonamide] registered a melting point of 162 to 163 °C.

Take `O=C1NCCC[C@@H]1NS(=O)(=O)c1cccc(C(F)(F)F)c1` [Example 5, (S)—N-(2-Oxopiperidin-3-yl)-3-(trifluoromethyl)benzenesulfonamide]: the melting point lay in the range of 158 to 160 °C. Take `CCCCCCCCCC(C)(C)CC(=O)NC1CCCCNC1=O` (stereo not drawn) [3′3′-dimethyldodecanoyl-3-aminocaprolactam]: the “potency as a BSCI relative to the linear alkyl analogs” value in data set [4] is recorded as “no more potent”.

On to “c(DCys-DGln-DIle-DTrp-DLys-DGIn-DLys-DPro-DAsp-DLeu-DCys)-NH2 [NR58-3.14.3]”, for which the “half-life of clearance from blood plasma” value in data set [6] (after intravenous injection) is reported as “less than 30 minutes”. Moreover, the oral bioavailability result in data set [6] (in vivo, po) was “not orally bioavailable”.
